Assay [1] deals with ligand binding domain of human FXR (Homo sapiens (Human), UniProt Q96RI1). Kind of assay: FXR ligand binding assay (LanthaScreen TR-FRET, SRC2-2 peptide recruitment). Particulars: for pEC50: -log EC50, concentration required to produce 50% activation; for Emax: extent of activation relative to GW4064, read-out: % Efficacy.
The target in assay [2] is human Farnesoid X receptor ligand-binding domain/Gal4 DNA binding domain chimera (Homo sapiens (Human), UniProt Q96RI1). Kind of assay: Cell-based assay of FXR activation (FXR-UAS-bla HEK 293T beta-lactamase reporter). The conditions noted are these: cellular FXR beta-lactamase reporter assay; for Emax: HEK-293T, extent of activation relative to GW4064, read-out: % Efficacy; for EC50: FXR-UAS-bla HEK 293T cells, 16 h, pEC50 = -log EC50. In a few lines: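 Readout is cleavage of the CCF4 FRET substrate (409 nm excitation, blue 447 nm signal) by beta-lactamase, expressed under UAS control after a Gal4–human FXR LBD chimera is activated in HEK 293T cells. Compounds were added as 3-fold dilutions for 16 h at 37 °C in 2% charcoal-stripped FBS medium. Curves were fit to a 3-parameter logistic equation to give pEC50, with % activation relative to GW4064.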
In general terms: A reporter such as luciferase makes a cellular process visible.

The source of these data is patent publication US10793568B2, “Hormone receptor modulators for treating metabolic conditions and disorders” (ARDELYX, INC., priority 2016, dated 2020).

Where only a bound is given, the exact number is not on record here.

ligand binding domain of human FXR, sequence (Q96RI1 262-486): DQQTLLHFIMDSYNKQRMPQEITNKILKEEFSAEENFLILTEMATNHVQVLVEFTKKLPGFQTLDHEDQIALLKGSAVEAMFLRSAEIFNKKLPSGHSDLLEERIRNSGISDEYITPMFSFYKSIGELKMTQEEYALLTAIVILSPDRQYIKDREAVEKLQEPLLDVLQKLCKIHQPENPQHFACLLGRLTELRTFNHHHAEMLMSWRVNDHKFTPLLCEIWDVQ
human Farnesoid X receptor ligand-binding domain/Gal4 DNA binding domain chimera, sequence (Q96RI1 262-486, change not shown): as the sequence (Q96RI1 262-486) above
human Farnesoid X receptor ligand-binding domain/Gal4 DNA binding domain chimera, sequence (P04386 1-147 partner): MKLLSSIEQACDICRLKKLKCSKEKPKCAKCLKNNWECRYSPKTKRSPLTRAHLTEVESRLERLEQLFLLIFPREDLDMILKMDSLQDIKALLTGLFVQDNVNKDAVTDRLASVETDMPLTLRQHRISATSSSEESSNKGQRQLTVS

Turning to `O=C(O)c1ccc(N2C[C@@H]3C[C@H]2C[C@H]3OCc2c(-c3c(Cl)cccc3Cl)noc2C2CC2)cc1F` [Compound I-103, 4-[(1S,4S,5R)-5-{[5-cyclopropyl-3-(2,6-dichlorophenyl)-1,2-oxazol-4-yl]methoxy}-2-azabicyclo[2.2.1]heptan-2-yl]-2-fluorobenzoic Acid], in assay [1], the pEC50 worked out at 8.7 and the Emax is 135%. In assay [2], the Emax came out at 103% and the EC50 is 0.794 nM.

Take `CCOCCOCCS(=O)(=O)NC(=O)c1ccc(N2C[C@@H]3C[C@H]2C[C@H]3OCc2c(-c3c(Cl)cccc3Cl)noc2C2CC2)c(F)c1` [Compound I-193, 4-((1S,4S,5R)-5-((5-cyclopropyl-3-(2,6-dichlorophenyl)isoxazol-4-yl)methoxy)-2-azabicyclo[2.2.1]heptan-2-yl)-N-((2-(2-ethoxyethoxy)ethyl)sulfonyl)-3-fluorobenzamide]: in assay [1], the pEC50 amounted to 8.2 and the Emax is 138%. Besides, in assay [2], the Emax was found to be 114% and a half-maximal effect (EC50) was put at 1.58 nM.

Regarding `O=C(O)CNC(=O)c1ccc(N2C[C@@H]3C[C@H]2C[C@H]3OCc2c(-c3c(Cl)cccc3Cl)noc2C2CC2)cc1` [Compound I-165, 2-({4-[(1S,4S,5R)-5-{[5-cyclopropyl-3-(2,6-dichlorophenyl)-1,2-oxazol-4-yl]methoxy}-2-azabicyclo[2.2.1]heptan-2-yl]phenyl}formamido)acetic Acid], in assay [1], the pEC50 was determined as 8.4 and the Emax was 140%. In assay [2], the Emax came to 107% and the EC50 was 20 nM.

Take `Cc1cccc(Cl)c1-c1noc(C2CC2)c1CO[C@@H]1C[C@@H]2C[C@H]1CN2c1ccc(CCC(=O)NS(=O)(=O)C2CCOCC2)cc1F` [Compound I-243, 3-(4-((1S,4S,5R)-5-((3-(2-chloro-6-methylphenyl)-5-cyclopropylisoxazol-4-1)methoxy)-2-azabicyclo[2.2.1]heptan-2-yl)-3-fluorophenyl)-N-((tetrahydro-2H-pyran-4-yl)sulfonyl)propanamide]: in assay [1], the pEC50 was determined as 8.4 and the Emax worked out at 182%. In addition, in assay [2], the Emax is 98% and the 50% effective concentration (EC50) was 6.31 nM.

For the compound `CCCS(=O)(=O)NC(=O)c1ccc(N2C[C@@H]3C[C@H]2C[C@H]3OCc2c(-c3c(Cl)cccc3Cl)noc2C2CC2)c(F)c1` [Compound I-61, 4-[(1S,4S,5R)-5-{[5-cyclopropyl-3-(2,6-dichlorophenyl)-1,2-oxazol-4-yl]methoxy}-2-azabicyclo[2.2.1]heptan-2-yl]-3-fluoro-N-(propane-1-sulfonyl)benzamide], in assay [1], the pEC50 is on record as 8.7 and the Emax was found to be 174%. In assay [2], the Emax worked out at 106% and the EC50 is 0.0631 nM.

`O=C(O)c1cc(O[C@H]2CCOC2)c2nc(N3C[C@@H]4C[C@H]3C[C@H]4OCc3c(-c4c(Cl)cccc4Cl)noc3C3CC3)sc2c1` [Compound I-260, 2-[(1S,4S,5R)-5-{[5-cyclopropyl-3-(2,6-dichlorophenyl)-1,2-oxazol-4-yl]methoxy}-2-azabicyclo[2.2.1]heptan-2-yl]-4-[(3S)-oxolan-3-yloxy]-1,3-benzothiazole-6-carboxylic Acid]: in assay [1], the pEC50 was determined as 8.8 and the Emax amounted to 148%. In addition, in assay [2], the Emax amounted to 103% and the EC50 was 0.398 nM.

As for `FC(F)(F)Oc1cc(-c2nn[nH]n2)cc2sc(N3C[C@@H]4C[C@H]3C[C@H]4OCc3c(-c4c(Cl)cccc4Cl)noc3C3CC3)nc12` [Compound I-27, 2-[(1S,4S,5R)-5-{[5-cyclopropyl-3-(2,6-dichlorophenyl)-1,2-oxazol-4-yl]methoxy}-2-azabicyclo[2.2.1]heptan-2-yl]-4-trifluoromethoxy-6-(2H-1,2,3,4-tetrazol-5-yl)-1,3-benzothiazole], in assay [1], the Emax amounted to 130%. Also, in assay [2], the Emax is 94% and the EC50 is 2 nM.

`Cc1cc(C(=O)O)cc2sc(N3C[C@@H]4C[C@H]3C[C@H]4OC(=O)c3c(-c4c(Cl)cccc4Cl)noc3C3CC3)nc12` [Compound I-3, 2-[(1S,4S,5R)-5-[5-cyclopropyl-3-(2,6-dichlorophenyl)-1,2-oxazole-4-carbonyloxy]-2-azabicyclo[2.2.1]heptan-2-yl]-4-methyl-1,3-benzothiazole-6-carboxylic acid]: in assay [1], the pEC50 was 7.6 and the Emax stood at 153%. Also, in assay [2], the Emax turned out to be 123% and the EC50 is 5.01 nM.

Take `O=C(NS(=O)(=O)C1CCOCC1)c1ccc(N2C(=O)[C@@H]3C[C@H]2C[C@H]3OCc2c(-c3c(Cl)cccc3Cl)noc2C2CC2)cc1` [Compound I-338]: in assay [1], the pEC50 stood at 8.9 and the Emax was determined as 158%. For the same compound, in assay [2], the Emax worked out at 106% and a half-maximal response (EC50) required 15.8 nM.

On to `CC(=O)NCCCCCCCCCCS(=O)(=O)NC(=O)c1ccc(N2C[C@@H]3C[C@H]2C[C@H]3OCc2c(-c3c(Cl)cccc3Cl)noc2C2CC2)c(F)c1` [Compound I-224, N-{10-[({4-[(1S,4S,5R)-5-{[5-cyclopropyl-3-(2,6-dichlorophenyl)-1,2-oxazol-4-yl]methoxy}-2-azabicyclo[2.2.1]heptan-2-yl]-3-fluorophenyl}formamido)sulfonyl]decyl}acetamide], for which, in assay [1], the pEC50 came out at 8.1 and the Emax turned out to be 155%. Besides, in assay [2], the Emax was determined as 104% and a half-maximal response (EC50) required 2.51 nM.

Regarding `Cc1cc(C(=O)O)ccc1N1C[C@@H]2C[C@H]1C[C@H]2OCc1c(-c2c(Cl)cccc2Cl)noc1C1CC1` [Compound I-107, 4-((1S,4S,5R)-5-((5-cyclopropyl-3-(2,6-dichlorophenyl)isoxazol-4-yl)methoxy)-2-azabicyclo[2.2.1]heptan-2-yl)-3-methylbenzoic acid], in assay [1], the pEC50 was determined as 8.6 and the Emax is 122%. In assay [2], the Emax worked out at 102% and the EC50 is 1 nM.

Consider `O=C(NS(=O)(=O)C1COC1)c1ccc(N2C[C@@H]3C[C@H]2C[C@H]3OCc2c(-c3c(Cl)cccc3Cl)noc2C2CC2)cc1` [Compound I-184, 4-((1S,4S,5R)-5-((5-cyclopropyl-3-(2,6-dichlorophenyl)isoxazol-4-yl)methoxy)-2-azabicyclo[2.2.1]heptan-2-yl)-N-(oxetan-3-ylsulfonyl)benzamide], for which, in assay [1], the pEC50 is reported as 7.7 and the Emax is 161%. Besides, in assay [2], the Emax stood at 108% and the EC50 was 3.16 nM.

As for `CS(=O)(=O)NC(=O)c1ccc(N2C[C@@H]3C[C@H]2C[C@H]3OCc2c(-c3c(Cl)cccc3Cl)noc2C2CC2)cc1` [Compound I-58, 4-[(1S,4S,5R)-5-{[5-cyclopropyl-3-(2,6-dichlorophenyl)-1,2-oxazol-4-yl]methoxy}-2-azabicyclo[2.2.1]heptan-2-yl]-N-methanesulfonylbenzamide], in assay [1], the pEC50 is recorded as 8.4 and the Emax turned out to be 153%. For the same compound, in assay [2], the Emax stood at 104% and the EC50 is 0.501 nM.

Regarding `O=C(O)c1cc(C2CC2)c2nc(N3C[C@@H]4C[C@H]3C[C@H]4OCc3c(-c4c(Cl)cccc4Cl)noc3C3CC3)sc2c1` [Compound I-14, 4-cyclopropyl-2-[(1S,4S,5R)-5-{[5-cyclopropyl-3-(2,6-dichlorophenyl)-1,2-oxazol-4-yl]methoxy}-2-azabicyclo[2.2.1]heptan-2-yl]-1,3-benzothiazole-6-carboxylic acid], in assay [1], the pEC50 worked out at 8.6 and the Emax worked out at 146%. For the same compound, in assay [2], the Emax was found to be 111% and the EC50 is 0.1 nM.

For the compound `O=C(NS(=O)(=O)CCO)c1ccc(N2C[C@@H]3C[C@H]2C[C@H]3OCc2c(-c3c(Cl)cccc3Cl)noc2C2CC2)cc1` [Compound I-210, 4-[(1S,4S,5R)-5-{[5-cyclopropyl-3-(2,6-dichlorophenyl)-1,2-oxazol-4-yl]methoxy}-2-azabicyclo[2.2.1]heptan-2-yl]-N-(2-hydroxyethanesulfonyl)benzamide], in assay [1], the pEC50 amounted to 8.6 and the Emax worked out at 148%. Also, the EC50 in assay [2] was below 31.6 nM.

Regarding `O=C(O)CCc1ccc(N2C(=O)[C@@H]3C[C@H]2C[C@H]3OCc2c(-c3c(Cl)cccc3Cl)noc2C2CC2)c(F)c1` [Compound I-304, 3-{4-[(1S,4R,5R)-5-{[5-cyclopropyl-3-(2,6-dichlorophenyl)-1,2-oxazol-4-yl]methoxy}-3-oxo-2-azabicyclo[2.2.1]heptan-2-yl]-3-fluorophenyl}propanoic Acid], in assay [1], the pEC50 is recorded as 6.6 and the Emax was found to be 118%. Also, in assay [2], the Emax was found to be 107% and the EC50 is 100 nM.

Consider `O=C(O)c1cc(C2CCOCC2)c2nc(N3C[C@@H]4C[C@H]3C[C@H]4OCc3c(-c4c(Cl)cccc4Cl)noc3C3CC3)sc2c1` [Compound I-254, 2-[(1S,4S,5R)-5-{[5-cyclopropyl-3-(2,6-dichlorophenyl)-1,2-oxazol-4-yl]methoxy}-2-azabicyclo[2.2.1]heptan-2-yl]-4-(oxan-4-yl)-1,3-benzothiazole-6-carboxylic Acid], for which, in assay [1], the pEC50 came to 9 and the Emax amounted to 143%. In assay [2], the Emax is 106% and the midpoint of the response, the EC50, lay at 0.316 nM.

`CCOc1cc(C(=O)O)cc2sc(N3C[C@@H]4C[C@H]3C[C@H]4OCc3c(-c4c(Cl)cccc4Cl)noc3C3CC3)nc12` [Compound I-18, 2-[(1S,4S,5R)-5-{[5-cyclopropyl-3-(2,6-dichlorophenyl)-1,2-oxazol-4-yl]methoxy}-2-azabicyclo[2.2.1]heptan-2-yl]-4-ethoxy-1,3-benzothiazole-6-carboxylic acid]: in assay [1], the pEC50 was 8.8 and the Emax worked out at 135%. Further, in assay [2], the Emax is 109% and the EC50 is 0.1 nM.

Broadly, the pEC50 is the negative decadic logarithm of the EC50, by convention in mol/L. Higher therefore signals a low EC50. As usually defined, the EC50 is the concentration that produces a half-maximal response.
